Assay results: US10556936B2, “Immunogenic proteins and fragments thereof from allergenic mites” (ALK-ABELLÓ A/S, priority 2016, dated 2020)

System: HDM-specific T cells expanded from PBMCs of HDM-allergic individuals
Assay: T cell reactivity of peptides: IFN/IL-5 ELISPOT on in vitro expanded HDM-specific T cells
Type: cell-based, human
Conditions: for SFC/donor: individual peptides 10 μg/mL; for % responder: percentage of donors that produced a response against the peptide, 10 μg/mL
Method: Each sequence of an “L” cluster was aligned separately using the MEGA software tool with ClustalW. Fifteen-mer peptides overlapping by 10 amino acids were generated and the last 15-mer peptide was added when the sequence length was not divisible by 5, 14,783 unique peptides remained.
HLA class II binding predictions optimized for global coverage were performed for the seven class II alleles (HLA-DRB1*03:01, HLA-DRB1*07:01, HLA-DRB1*15:01, HLA-DRB3*01:01, HLA-DRB3*02:02, HLA-DRB4*01:01 and HLA-DRB5*01:01) using the standalone version of the IEDB class II binding prediction tool. The median consensus percentile rank was estimated from the consensus percentile ranks for the seven alleles. Further, peptides with more than ten overlapping amino acids, which appeared because several occurrences of some sequence regions were repeated multiple times in the same sequence, were eliminated (e.g. “[…]” was repeated seven times in one sequence.) Variant peptides were also removed, retaining the better peptide based on the median consensus percentile rank and conservation among the sequences within its respective cluster. Peptides with median consensus percentile rank ≤10.0 and conserved in ≥35% of sequences in the same cluster were finally selected, also including additional selected peptides chosen to maximize DRB1 allele coverage, for a grand total of 2,589 peptides.
Peptides were purchased from Mimotopes (Clayton, Victoria, Australia) or A and A (San Diego, Calif.) as crude material on a small (1-mg) scale. Individual peptides were resuspended in DMSO at a final concentration of 40 mg/mL. Peptide “megapools” of 30-65 peptides/pool were generated. Following lyophilization, each pool was reconstituted in DMSO so that each peptide was present at a concentration of 4 mg/mL. To facilitate deconvolution of positive megapools, each megapool was further broken down in 2-6 “mesopools” (259 mesopools in total), each containing 8-14 peptides. Each mesopool was then deconvoluted to identify individual positive peptides. To avoid dimerization and polymerization of peptides by intra- and intermolecular disulfide bond formation between cysteine residues, this amino acid were in some instances substituted by a serine residue in the peptides. Such peptides are herein marked with an asterisk (*).
PBMCs from European HDM-allergic individuals were recruited in the Copenhagen region (defined by clinical history of allergy to house dust mite and specific IgE to group 1 and group 2 major allergens from Der p and/or Der f and with measured specific IgE (CAP) >0.7 kU/L towards Der p/f 1 or Der p/f 2. In addition, PBMCs from 10 US HDM-allergic individuals were recruited in San Diego (defined by Der p extract IgE titers greater than 0.35 kUA/L). PBMCs were isolated from whole blood by density gradient centrifugation according to manufacturers' instructions (Ficoll-Hypaque, Amersham Biosciences, Uppsala, Sweden). Der p- and Der f-specific extract IgE titers were determined using the ImmunoCAP system (Thermo Fisher, Uppsala, Sweden). In a separate series of experiments, pooled plasma from 10 European and 10 American HDM atopic individuals from the San Diego region, respectively, was utilized to run 2D immunoblots to elucidate IgE and IgG reactivity towards the proteins, which had at least one peptide with positive T cell response.
HDM-specific T cells were expanded in vitro. Briefly, PBMCs from HDM-allergic individuals were stimulated with HDM extract (5 μg/mL) and expanded over 14-17 days with IL-2 (added every 3 days). Cells were harvested on day 14, restimulated with HDM extract (5 μg/mL), individual peptides (10 μg/mL) or peptide pools (5 μg/mL) and screened for […]/IL-5-production by ELISPOT. Criteria for positivity were 100 or 20 spot forming cells (SFCs) per 10^6 PBMCs for peptide pools or single peptides, respectively, p<0.05, and a stimulation index >2.

Row | Substance | SFC/donor | % responder
1 | 147 (LGMQICFDMIFKTPG; Immunogenic fragment) [compound 147] | 28 SFC/donor | 20%
2 | 148 (TWWFDEAPMLSSSQY; Immunogenic fragment) [compound 148] | 21 SFC/donor | 10%
3 | 149 (SSSQYQMAWAFGNNV; Immunogenic fragment) [compound 149] | 12 SFC/donor | 10%
4 | 150 (ELNSRFVYAKLRGAF; Immunogenic fragment) [compound 150] | 21 SFC/donor | 5%
5 | 151 (FVYAKLRGAFSESTA; Immunogenic fragment) [compound 151] | 9 SFC/donor | 5%
6 | 152 (LRGAFSESTAVYPSA; Immunogenic fragment) [compound 152] | 5 SFC/donor | 5%
7 | DWRNLYPRKYAFALP (Immunogenic fragment) [Peptide 186, fragment of A0023 Der f] | 64 SFC/donor | 5%
8 | EARENYITFTEPFMI (Immunogenic fragment) [Peptide 179, fragment of A0023 Der f/p] | 5 SFC/donor | 5%
9 | EPFMINQLAALIRRE (Immunogenic fragment) [Peptide 181, fragment of A0023 Der f/p] | 40 SFC/donor | 10%
10 | GYAFIMESSSAEHEI (Immunogenic fragment) [Peptide 184, fragment of A0023 Der f] | 16 SFC/donor | 10%
11 | HKPIILGTLRNGATN (Immunogenic fragment) [Peptide 182, fragment of A0023 Der f] | 175 SFC/donor | 10%
12 | KDSQYLQHFNNAIKQ (Immunogenic fragment) [Peptide 188, fragment of A0023 Der f] | 24 SFC/donor | 10%
13 | LGTLRNGATNHFLSK (Immunogenic fragment) [Peptide 183, fragment of A0023 Der f] | 163 SFC/donor | 20%
14 | LQHFNNAIKQLNTED (Immunogenic fragment) [Peptide 189, fragment of A0023 Der f] | 24 SFC/donor | 10%
15 | LTMLLDWRNLYPRKY (Immunogenic fragment) [Peptide 185, fragment of A0023 Der f] | 15 SFC/donor | 5%
16 | SLRGVTIRNAPFLEE (Immunogenic fragment) [Peptide 178, fragment of A0023 Der f] | 42 SFC/donor | 10%
17 | YITFTEPFMINQLAA (Immunogenic fragment) [Peptide 180, fragment of A0023 Der f/p] | 29 SFC/donor | 10%
18 | YPRKYAFALPKDSQY (Immunogenic fragment) [Peptide 187, fragment of A0023 Der f] | 25 SFC/donor | 10%
